Measured values taken from ChEMBL document CHEMBL3046206, “Synthesis of new 4-(2,5-dimethylpyrrol-1-yl)/4-pyrrol-1-yl benzoic acid hydrazide analogs and some derived oxadiazole, triazole and pyrrole ring systems: a novel class of potential antibacterial, antifungal and antitubercular agents” (Med Chem Res, 2013).
Values after ≈ are worked out from the molar mass of the structure shown.

Experiments:
Staphylococcus aureus = assay: Antibacterial activity against Staphylococcus aureus after 18 hr by broth microdilution technique; assay type: functional
Enterococcus faecalis = assay: Antibacterial activity against Enterococcus faecalis after 18 hr by broth microdilution technique; assay type: functional
Bacillus subtilis = assay: Antibacterial activity against Bacillus subtilis after 18 hr by broth microdilution technique; assay type: functional
Klebsiella pneumoniae = assay: Antibacterial activity against Klebsiella pneumoniae after 18 hr by broth microdilution technique; assay type: functional
Escherichia coli = assay: Antibacterial activity against Escherichia coli after 18 hr by broth microdilution technique; assay type: functional
Pseudomonas aeruginosa = assay: Antibacterial activity against Pseudomonas aeruginosa after 18 hr by broth microdilution technique; assay type: functional
Saccharomyces cerevisiae = assay: Antifungal activity against Saccharomyces cerevisiae after 18 hr by broth microdilution technique; assay type: functional
Candida tropicalis = assay: Antifungal activity against Candida tropicalis after 18 hr by broth microdilution technique; assay type: functional
Aspergillus niger = assay: Antifungal activity against Aspergillus niger after 18 hr by broth microdilution technique; assay type: functional
[1] = test system: Mycobacterium tuberculosis; assay: Antimycobacterial activity against Mycobacterium tuberculosis H37Rv after 21 days by broth dilution method; assay type: functional; settings: 504 h
Vero = assay: Cytotoxicity against Chlorocebus aethiops (African green monkey) Vero cells after 72 hr by MTT assay; assay type: cell-based; settings: Chlorocebus sabaeus
A549 = assay: Cytotoxicity against Homo sapiens (human) A549 cells after 72 hr by MTT assay; assay type: cell-based; settings: A549, 72 h

Compound	MIC (Staphylococcus aureus) [µg/mL]	MIC (Enterococcus faecalis) [µg/mL]	MIC (Bacillus subtilis) [µg/mL]	MIC (Klebsiella pneumoniae) [µg/mL]	MIC (Escherichia coli) [µg/mL]	MIC (Pseudomonas aeruginosa) [µg/mL]	MIC (Saccharomyces cerevisiae) [µg/mL]	MIC (Candida tropicalis) [µg/mL]	MIC (Aspergillus niger) [µg/mL]	MIC [1] [µg/mL]	IC50 (Vero) [µM]	IC50 (A549) [µM]
Cc1ccc(C)n1NC(=O)c1ccc(-n2c(C)ccc2C)cc1	2 (≈ 6.51 µM)	16 (≈ 52 µM)	16 (≈ 52 µM)	62.5 (≈ 203 µM)	500 (≈ 1630 µM)	500 (≈ 1630 µM)	16 (≈ 52 µM)	4 (≈ 13 µM)	16 (≈ 52 µM)	2 (≈ 6.51 µM)	230	225
Cc1ccc(C)n1-c1ccc(C(=O)N/N=C/c2ccccc2Cl)cc1	16 (≈ 45.5 µM)	31.2 (≈ 88.8 µM)	8 (≈ 22.7 µM)	62.5 (≈ 178 µM)	500 (≈ 1420 µM)	500 (≈ 1420 µM)	31.2 (≈ 88.8 µM)	8 (≈ 22.7 µM)	16 (≈ 45.5 µM)	16 (≈ 45.5 µM)	–	–
O=C(O)c1cn(C2CC2)c2cc(N3CCNCC3)c(F)cc2c1=O [CIPROFLOXACIN]	< 5	< 5	≤ 1	≤ 1	≤ 1	> 5	–	–	–	–	–	–
Cc1ccc(C)n1-c1ccc(-c2nnc(S)o2)cc1	2 (≈ 7.37 µM)	4 (≈ 14.7 µM)	4 (≈ 14.7 µM)	62.5 (≈ 230 µM)	62.5 (≈ 230 µM)	62.5 (≈ 230 µM)	8 (≈ 29.5 µM)	2 (≈ 7.37 µM)	8 (≈ 29.5 µM)	2 (≈ 7.37 µM)	261	254
Cc1ccc(C)n1-c1ccc(C(=O)N/N=C/c2cccc([N+](=O)[O-])c2)cc1	31.2 (≈ 86.2 µM)	31.2 (≈ 86.2 µM)	31.2 (≈ 86.2 µM)	500 (≈ 1380 µM)	500 (≈ 1380 µM)	500 (≈ 1380 µM)	31.2 (≈ 86.2 µM)	16 (≈ 44.2 µM)	16 (≈ 44.2 µM)	62.5 (≈ 172 µM)	–	–
Cc1ccc(C)n1-c1ccc(C(=O)N/N=C/c2ccc(Br)cc2)cc1	16 (≈ 40.4 µM)	31.2 (≈ 78.9 µM)	16 (≈ 40.4 µM)	500 (≈ 1260 µM)	500 (≈ 1260 µM)	> 500	31.2 (≈ 78.9 µM)	8 (≈ 20.2 µM)	16 (≈ 40.4 µM)	16 (≈ 40.4 µM)	–	–
CCn1cc(C(=O)O)c(=O)c2cc(F)c(N3CCNCC3)cc21 [NORFLOXACIN]	< 5	< 5	≤ 1	≤ 1	≤ 1	> 5	–	–	–	–	–	–
Cc1ccc(C)n1-c1ccc(C(=O)NN=C(c2ccccc2)c2ccccc2)cc1	62.5 (≈ 159 µM)	31.2 (≈ 79.4 µM)	31.2 (≈ 79.4 µM)	500 (≈ 1270 µM)	500 (≈ 1270 µM)	500 (≈ 1270 µM)	62.5 (≈ 159 µM)	62.5 (≈ 159 µM)	62.5 (≈ 159 µM)	31.2 (≈ 79.4 µM)	–	–
CC(C)=NNC(=O)c1ccc(-n2c(C)ccc2C)cc1	31.2 (≈ 116 µM)	31.2 (≈ 116 µM)	16 (≈ 59.4 µM)	500 (≈ 1860 µM)	500 (≈ 1860 µM)	500 (≈ 1860 µM)	62.5 (≈ 232 µM)	31.2 (≈ 116 µM)	62.5 (≈ 232 µM)	31.2 (≈ 116 µM)	–	–
Cc1ccc(C)n1-c1ccc(C(=O)N/N=C/c2ccc(O)cc2)cc1	16 (≈ 48 µM)	16 (≈ 48 µM)	31.2 (≈ 93.7 µM)	62.5 (≈ 187 µM)	500 (≈ 1500 µM)	500 (≈ 1500 µM)	16 (≈ 48 µM)	16 (≈ 48 µM)	16 (≈ 48 µM)	31.2 (≈ 93.7 µM)	–	–
Cc1ccc(C)n1-c1ccc(C(=O)N/N=C/c2ccc(N(C)C)cc2)cc1	31.2 (≈ 86.7 µM)	31.2 (≈ 86.7 µM)	31.2 (≈ 86.7 µM)	62.5 (≈ 173 µM)	500 (≈ 1390 µM)	500 (≈ 1390 µM)	31.2 (≈ 86.7 µM)	31.2 (≈ 86.7 µM)	31.2 (≈ 86.7 µM)	31.2 (≈ 86.7 µM)	–	–
Cc1ccc(C)n1-c1ccc(C(=O)N/N=C/c2ccccc2[N+](=O)[O-])cc1	62.5 (≈ 172 µM)	31.2 (≈ 86.2 µM)	31.2 (≈ 86.2 µM)	> 500	> 500	> 500	31.2 (≈ 86.2 µM)	16 (≈ 44.2 µM)	16 (≈ 44.2 µM)	62.5 (≈ 172 µM)	–	–
C/C(=N/NC(=O)c1ccc(-n2c(C)ccc2C)cc1)c1ccc(N)cc1	31.2 (≈ 90.2 µM)	62.5 (≈ 180 µM)	62.5 (≈ 180 µM)	500 (≈ 1440 µM)	500 (≈ 1440 µM)	500 (≈ 1440 µM)	62.5 (≈ 180 µM)	62.5 (≈ 180 µM)	62.5 (≈ 180 µM)	31.2 (≈ 90.2 µM)	–	–
Cc1ccc(C)n1-c1ccc(C(=O)NN)cc1	62.5 (≈ 273 µM)	62.5 (≈ 273 µM)	62.5 (≈ 273 µM)	62.5 (≈ 273 µM)	500 (≈ 2180 µM)	500 (≈ 2180 µM)	62.5 (≈ 273 µM)	62.5 (≈ 273 µM)	62.5 (≈ 273 µM)	62.5 (≈ 273 µM)	–	–
OC(Cn1cncn1)(Cn1cncn1)c1ccc(F)cc1F [FLUCONAZOLE]	–	–	–	–	–	–	≤ 1	≤ 1	≤ 1	–	–	–
